Laboratory results taken from PubChem BioAssay AID1963978 (Molecular Pharmacology Branch, DTP, NCI, 2024).
pIC50: −log10 of the molar value.

Tested on: 616215-338-R-J1-PDC spheroids with HUVEC/MSC, viability
Assay: Anticancer human tumor 616215-338-R-J1-PDC patient-derived colon adenocarcinoma cell line growth inhibition [PI3K]
Details: for viability, T/C: stronger effect = lower value; active means viability on the fitted dose curve at most 10% of control; inactive means the rest
Method in brief: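 Viability of mixed-cell spheroids was determined after exposure to pairwise combinations, one partner being inavolisib, alpelisib, duvelisib or copanlisib. Highest tested concentration matched clinical Cmax where known and 10 microM where not, descending in half-log steps.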

[1] = curve of first compound, second compound 0.00316 µM
[2] = curve of first compound, second compound 0.01 µM
[3] = curve of first compound, second compound 0.0316 µM
[4] = curve of first compound, second compound 0.1 µM
[5] = curve of first compound, second compound 0.316 µM
[6] = curve of first compound, second compound 1 µM
[7] = second compound 0.00316 µM, first compound 0.0316 µM
[8] = second compound 0.00316 µM, first compound 0.1 µM
[9] = second compound 0.00316 µM, first compound 0.316 µM
[10] = second compound 0.00316 µM, first compound 1 µM
[11] = second compound 0.00316 µM, first compound 3.16 µM
[12] = second compound 0.00316 µM, first compound 10 µM
[13] = second compound 0.01 µM, first compound 0.0316 µM
[14] = second compound 0.01 µM, first compound 0.1 µM
[15] = second compound 0.01 µM, first compound 0.316 µM
[16] = second compound 0.01 µM, first compound 1 µM
[17] = second compound 0.01 µM, first compound 3.16 µM
[18] = second compound 0.01 µM, first compound 10 µM
[19] = second compound 0.0316 µM, first compound 0.0316 µM
[20] = second compound 0.0316 µM, first compound 0.1 µM
[21] = second compound 0.0316 µM, first compound 0.316 µM
[22] = second compound 0.0316 µM, first compound 1 µM
[23] = second compound 0.0316 µM, first compound 3.16 µM
[24] = second compound 0.0316 µM, first compound 10 µM
[25] = second compound 0.1 µM, first compound 0.0316 µM
[26] = second compound 0.1 µM, first compound 0.1 µM
[27] = second compound 0.1 µM, first compound 0.316 µM
[28] = second compound 0.1 µM, first compound 1 µM
[29] = second compound 0.1 µM, first compound 3.16 µM
[30] = second compound 0.1 µM, first compound 10 µM
[31] = second compound 0.316 µM, first compound 0.0316 µM
[32] = second compound 0.316 µM, first compound 0.1 µM
[33] = second compound 0.316 µM, first compound 0.316 µM
[34] = second compound 0.316 µM, first compound 1 µM
[35] = second compound 0.316 µM, first compound 3.16 µM
[36] = second compound 0.316 µM, first compound 10 µM
[37] = second compound 1 µM, first compound 0.0316 µM
[38] = second compound 1 µM, first compound 0.1 µM
[39] = second compound 1 µM, first compound 0.316 µM
[40] = second compound 1 µM, first compound 1 µM
[41] = second compound 1 µM, first compound 3.16 µM
[42] = second compound 1 µM, first compound 10 µM
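Further: spheroids exposed to agents for seven days before the viability read.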

Cn1nccc1Nc1nccc(-c2ccn(C(CO)c3ccc(Cl)c(F)c3)c(=O)c2)n1 (configuration not stated) + COc1c(OCCCN2CCOCC2)ccc2c3n(c(=NC(=O)c4cnc(N)nc4)nc12)CCN3
inactive: viability, T/C [7] 99.7% | viability, T/C [8] 94.4% | viability, T/C [9] 76.8% | viability, T/C [10] 67.7% | viability, T/C [11] 48.5% | viability, T/C [12] 40.7% | viability, T/C [13] 96.7% | viability, T/C [14] 102% | viability, T/C [15] 81.2% | viability, T/C [16] 49.8% | viability, T/C [17] 42.4% | viability, T/C [18] 28.8% | viability, T/C [19] 94.1% | viability, T/C [20] 92.8% | viability, T/C [21] 59.6% | viability, T/C [22] 42.2% | viability, T/C [23] 25.6% | viability, T/C [24] 10.7% | viability, T/C [25] 92.4% | viability, T/C [26] 83.8% | viability, T/C [27] 46.6% | viability, T/C [28] 37.5% | viability, T/C [29] 13.9% | viability, T/C [31] 38% | viability, T/C [32] 38.6% | viability, T/C [33] 22.6% | viability, T/C [34] 13.2% | viability, T/C [37] 19.6% | viability, T/C [38] 11.4%
5.95: pIC50 [2]
> 7.50: pIC50 [5] | pIC50 [6]
6.39: pIC50 [4]
5.48: pIC50 [1]
active: viability, T/C [30] 0.2% | viability, T/C [35] 1.77% | viability, T/C [36] 0.14% | viability, T/C [39] 4.09% | viability, T/C [40] 0.93% | viability, T/C [41] 0.9% | viability, T/C [42] 0.16%
6.18: pIC50 [3]

Cn1ncc(Cl)c1-c1cc(C(=O)NC(CN)Cc2cccc(F)c2)sc1Cl (configuration not stated)
6.53 µM [middle of 4 runs]: IC50 (curve of compound)
inactive: viability, T/C (compound 0.0316 µM) 94% [middle of 4 runs] | viability, T/C (compound 0.1 µM) 97.8% [middle of 4 runs] | viability, T/C (compound 0.316 µM) 96.6% [middle of 4 runs] | viability, T/C (compound 1 µM) 97.7% [middle of 4 runs] | viability, T/C (compound 10 µM) 35.6% [middle of 4 runs]

CC(Cn1ccc(-c2ccc(C#N)c(Cl)c2)n1)NC(=O)c1cc(C(C)O)[nH]n1 (configuration not stated)
inactive: viability, T/C (compound 0.0316 µM) 99.3% [middle of 4 runs] | viability, T/C (compound 0.316 µM) 97.2% [middle of 4 runs] | viability, T/C (compound 1 µM) 101% [middle of 4 runs] | viability, T/C (compound 10 µM) 101% [middle of 4 runs]
< 5.00: pIC50 (curve of compound)

C=CC(=O)N1CCN(c2nc(=O)n(-c3c(C)ccnc3C(C)C)c3nc(-c4c(O)cccc4F)c(F)cc23)C(C)C1 (configuration not stated) + COc1c(OCCCN2CCOCC2)ccc2c3n(c(=NC(=O)c4cnc(N)nc4)nc12)CCN3
< 5.00: pIC50 [1] | pIC50 [2] | pIC50 [3] | pIC50 [4]
inactive: viability, T/C [7] 90.8% | viability, T/C [8] 87.9% | viability, T/C [9] 92.2% | viability, T/C [10] 96.6% | viability, T/C [11] 95.2% | viability, T/C [12] 80.1% | viability, T/C [13] 110% | viability, T/C [14] 92.2% | viability, T/C [15] 97.8% | viability, T/C [16] 101% | viability, T/C [17] 111% | viability, T/C [18] 78% | viability, T/C [19] 106% | viability, T/C [20] 85.9% | viability, T/C [21] 99.5% | viability, T/C [22] 110% | viability, T/C [23] 87.8% | viability, T/C [24] 76.2% | viability, T/C [25] 91.7% | viability, T/C [26] 96.8% | viability, T/C [27] 93.4% | viability, T/C [28] 98.9% | viability, T/C [29] 90.2% | viability, T/C [30] 71.7% | viability, T/C [31] 52.7% | viability, T/C [32] 36.7% | viability, T/C [33] 46.1% | viability, T/C [34] 47.1% | viability, T/C [35] 47.1% | viability, T/C [36] 36.6% | viability, T/C [37] 23.4% | viability, T/C [38] 23.2% | viability, T/C [39] 29.8% | viability, T/C [40] 24.4% | viability, T/C [41] 25.4% | viability, T/C [42] 21%
> 7.50: pIC50 [5] | pIC50 [6]

CC1(C)CCC(CN2CCN(c3ccc(C(=O)NS(=O)(=O)c4ccc(NCC5CCOCC5)c([N+](=O)[O-])c4)c(Oc4cnc5[nH]ccc5c4)c3)CC2)=C(c2ccc(Cl)cc2)C1 + CC(Nc1ccc2c(c1)OCCn1cc(N3C(=O)OCC3C(F)F)nc1-2)C(N)=O
5.34: pIC50 [1]
5.29: pIC50 [6]
active: viability, T/C [12] 2.83% | viability, T/C [18] 2.57% | viability, T/C [24] 3.65% | viability, T/C [30] 1.87% | viability, T/C [36] 2.04% | viability, T/C [42] 1.64%
inactive: viability, T/C [7] 88.6% | viability, T/C [8] 95.9% | viability, T/C [9] 104% | viability, T/C [10] 101% | viability, T/C [11] 72.8% | viability, T/C [13] 92.9% | viability, T/C [14] 101% | viability, T/C [15] 99.4% | viability, T/C [16] 106% | viability, T/C [17] 74.5% | viability, T/C [19] 90.5% | viability, T/C [20] 94.3% | viability, T/C [21] 96.6% | viability, T/C [22] 102% | viability, T/C [23] 86.9% | viability, T/C [25] 105% | viability, T/C [26] 97.8% | viability, T/C [27] 102% | viability, T/C [28] 93.2% | viability, T/C [29] 87.9% | viability, T/C [31] 98.5% | viability, T/C [32] 86.5% | viability, T/C [33] 93.5% | viability, T/C [34] 102% | viability, T/C [35] 92.5% | viability, T/C [37] 107% | viability, T/C [38] 104% | viability, T/C [39] 113% | viability, T/C [40] 103% | viability, T/C [41] 86.3%
5.27: pIC50 [5]
5.28: pIC50 [3] | pIC50 [4]
5.33: pIC50 [2]
